What was measured:
Mus musculus [1] = assay: Neuroleptic activity in po dosed STD-ddY mouse assessed as protection against methamphetamine-induced toxicity administered 1 hr before methamphetamine challenge measured after 24 hrs; type: functional
Mus musculus [2] = assay: Neuroleptic activity in po dosed STD-ddY mouse assessed as inhibition of spontaneous motor activity by measuring number of revolution of cage for 5 mins; type: functional
[3] = Acute toxicity in po dosed STD-ddY mouse assessed as mortality up to 7 days; type: organism-based; details: in vivo
Rattus norvegicus [4] = assay: Toxicity in po dosed albino Wistar rat assessed as induction of catalepsy after 8 hrs; type: organism-based; details: in vivo
Rattus norvegicus [5] = assay: Ratio of ED50 for po dosed albino Wistar rat assessed as induction of catalepsy to ED50 for methamphetamine-induced stereotyped behavior in po dosed albino Wistar rat
Rattus norvegicus [6] = assay: Inhibition of apomorphine-induced stereotyped behavior in po dosed albino Wistar rat administered 2 hrs before apomorphine challenge measured after 20 mins; type: functional
Rattus norvegicus [7] = assay: Ratio of ED50 for po dosed albino Wistar rat assessed as induction of catalepsy to ED50 for apomorphine-induced stereotyped behavior in po dosed albino Wistar rat
Rattus norvegicus [8] = assay: Inhibition of methamphetamine-induced stereotyped behavior in po dosed albino Wistar rat administered 2 hrs before methamphetamine challenge measured up to 3 hrs; type: functional
Rattus norvegicus [9] = assay: Ratio of benperidol ED50 to compound ED50 for methamphetamine-induced stereotyped behavior in po dosed albino Wistar rat; type: functional
Rattus norvegicus [10] = assay: Ratio of haloperidol ED50 to compound ED50 for methamphetamine-induced stereotyped behavior in po dosed albino Wistar rat; type: functional
Rattus norvegicus [11] = assay: Ratio of haloperidol ED50 to compound ED50 for apomorphine-induced stereotyped behavior in po dosed albino Wistar rat; type: functional
Rattus norvegicus [12] = assay: Ratio of benperidol ED50 to compound ED50 for apomorphine-induced stereotyped behavior in po dosed albino Wistar rat; type: functional

O=C(CCCN1CCC(n2cnc3ccccc32)CC1)c1ccc(F)cc1
ED50 (Mus musculus [1]): > 3 mg/kg | ED50 (Mus musculus [2]): 4.7 mg/kg

Cc1nc2ccccc2n1C1CCN(CCCC(=O)c2ccc(F)cc2)CC1
ED50 (Mus musculus [1]): 0.81 mg/kg | ED50 (Mus musculus [2]): 0.85 mg/kg

CCc1nc2ccccc2n1C1CCN(CCCC(=O)c2ccc(F)cc2)CC1.Cl
ED50 (Mus musculus [1]): > 3 mg/kg | ED50 (Mus musculus [2]): 9.1 mg/kg

CCCCc1nc2ccccc2n1C1CCN(CCCC(=O)c2ccc(F)cc2)CC1.Cl
ED50 (Mus musculus [1]): > 3 mg/kg | ED50 (Mus musculus [2]): 14 mg/kg

Cl.O=C(CCCN1CCC(n2c(-c3ccccc3)nc3ccccc32)CC1)c1ccc(F)cc1
ED50 (Mus musculus [1]): > 3 mg/kg | ED50 (Mus musculus [2]): 18 mg/kg

O=C(CCCN1CCC(n2c(C(F)(F)F)nc3ccccc32)CC1)c1ccc(F)cc1
ED50 (Mus musculus [2]): > 40 mg/kg

CSc1nc2ccccc2n1C1CCN(CCCC(=O)c2ccc(F)cc2)CC1
ED50 (Mus musculus [1]): 0.68 mg/kg | LD50 at 168 h [3]: 930 mg/kg | ED50 (Rattus norvegicus [4]): 1.1 mg/kg | Ratio ED50 (Rattus norvegicus [5]): 5.5 | ED50 (Rattus norvegicus [6]): 0.41 mg/kg | Ratio ED50 (Rattus norvegicus [7]): 2.7 | ED50 (Mus musculus [2]): 6.2 mg/kg | ED50 (Rattus norvegicus [8]): 0.2 mg/kg

CCSc1nc2ccccc2n1C1CCN(CCCC(=O)c2ccc(F)cc2)CC1.Cl
ED50 (Mus musculus [1]): > 3 mg/kg | ED50 (Mus musculus [2]): 5 mg/kg

Br.CC(C)Sc1nc2ccccc2n1C1CCN(CCCC(=O)c2ccc(F)cc2)CC1
ED50 (Mus musculus [1]): 1.6 mg/kg | ED50 (Mus musculus [2]): 4.4 mg/kg

O=C(CCCN1CCC(n2c(SCCO)nc3ccccc32)CC1)c1ccc(F)cc1
ED50 (Mus musculus [1]): > 3 mg/kg | ED50 (Mus musculus [2]): 6.9 mg/kg

O=C(CCCSc1nc2ccccc2n1C1CCN(CCCC(=O)c2ccc(F)cc2)CC1)c1ccc(F)cc1
ED50 (Mus musculus [1]): > 3 mg/kg | ED50 (Mus musculus [2]): 14 mg/kg

O=C(CCCN1CCC(n2c(SCC(=O)c3ccc(Cl)cc3)nc3ccccc32)CC1)c1ccc(F)cc1
ED50 (Mus musculus [1]): 1.6 mg/kg | ED50 (Mus musculus [2]): 5 mg/kg

O=C(CCCN1CCC(n2c(SCc3ccccc3)nc3ccccc32)CC1)c1ccc(F)cc1
ED50 (Mus musculus [1]): 0.76 mg/kg | ED50 (Mus musculus [2]): 1.3 mg/kg

C#CCSc1nc2ccccc2n1C1CCN(CCCC(=O)c2ccc(F)cc2)CC1.Cl
ED50 (Mus musculus [1]): 0.74 mg/kg | ED50 (Mus musculus [2]): 1.2 mg/kg

Br.CCOC(=O)CSc1nc2ccccc2n1C1CCN(CCCC(=O)c2ccc(F)cc2)CC1
ED50 (Mus musculus [2]): > 40 mg/kg

O=C(CCCN1CCC(n2c(Sc3ccccc3[N+](=O)[O-])nc3ccccc32)CC1)c1ccc(F)cc1
ED50 (Mus musculus [2]): 11 mg/kg

CCOC(=O)Sc1nc2ccccc2n1C1CCN(CCCC(=O)c2ccc(F)cc2)CC1
ED50 (Mus musculus [1]): 0.65 mg/kg | ED50 (Mus musculus [2]): 0.36 mg/kg

CCCCCCC(=O)Sc1nc2ccccc2n1C1CCN(CCCC(=O)c2ccc(F)cc2)CC1.Cl
ED50 (Mus musculus [1]): 1.1 mg/kg | ED50 (Mus musculus [2]): 1 mg/kg

Cl.O=C(CCCN1CCC(n2c(SC(=O)c3ccc(Cl)cc3)nc3ccccc32)CC1)c1ccc(F)cc1
ED50 (Mus musculus [1]): 0.83 mg/kg | ED50 (Mus musculus [2]): 0.96 mg/kg

Cl.Cn1c(=S)n(C2CCN(CCCC(=O)c3ccc(F)cc3)CC2)c2ccccc21
ED50 (Mus musculus [2]): 0.54 mg/kg

Br.C=CCn1c(=S)n(C2CCN(CCCC(=O)c3ccc(F)cc3)CC2)c2ccccc21
ED50 (Mus musculus [2]): 0.87 mg/kg

O=C(CCCN1CCC(n2nnc3ccccc32)CC1)c1ccc(F)cc1
ED50 (Mus musculus [2]): 33 mg/kg

Cc1nc2ccccc2n(C2CCN(CCCC(=O)c3ccc(F)cc3)CC2)c1=O
ED50 (Mus musculus [1]): > 3 mg/kg | ED50 (Mus musculus [2]): 14.1 mg/kg

CC(=O)O.O=C(CCCN1CCC(n2c(=O)c(O)nc3ccccc32)CC1)c1ccc(F)cc1
ED50 (Mus musculus [1]): > 3 mg/kg | ED50 (Mus musculus [2]): > 40 mg/kg

Cc1nc2ccccc2n1C1CCN(CCCC(c2ccc(F)cc2)c2ccc(F)cc2)CC1
ED50 (Mus musculus [1]): > 3 mg/kg | ED50 (Mus musculus [2]): 40 mg/kg

Fc1ccc(C(CCCN2CCC(n3c(=S)[nH]c4ccccc43)CC2)c2ccc(F)cc2)cc1
ED50 (Mus musculus [1]): 1 mg/kg | ED50 (Mus musculus [2]): 20 mg/kg

CSc1nc2ccccc2n1C1CCN(CCCC(c2ccc(F)cc2)c2ccc(F)cc2)CC1
ED50 (Mus musculus [1]): 2.4 mg/kg | ED50 (Mus musculus [2]): 13 mg/kg

OCCSc1nc2ccccc2n1C1CCN(CCCC(c2ccc(F)cc2)c2ccc(F)cc2)CC1
ED50 (Mus musculus [1]): > 3 mg/kg | ED50 (Mus musculus [2]): 40 mg/kg

O=C(CCCN1CCC(n2c(O)nc3ccccc32)CC1)c1ccc(F)cc1 [BENPERIDOL]
ED50 (Mus musculus [1]): 0.63 mg/kg | ED50 (Rattus norvegicus [4]): 0.92 mg/kg | Ratio ED50 (Rattus norvegicus [5]): 2.1 | ED50 (Rattus norvegicus [6]): 0.62 mg/kg | Ratio ED50 (Rattus norvegicus [7]): 1.5 | ED50 (Mus musculus [2]): 0.56 mg/kg | ED50 (Rattus norvegicus [8]): 0.44 mg/kg

O=C(CCCN1CCC(O)(c2ccc(Cl)cc2)CC1)c1ccc(F)cc1 [HALOPERIDOL]
ED50 (Mus musculus [1]): 0.32 mg/kg | LD50 at 168 h [3]: 240 mg/kg | ED50 (Rattus norvegicus [4]): 0.88 mg/kg | Ratio ED50 (Rattus norvegicus [5]): 1.8 | ED50 (Rattus norvegicus [6]): 0.85 mg/kg | Ratio ED50 (Rattus norvegicus [7]): 1 | ED50 (Mus musculus [2]): 0.8 mg/kg | ED50 (Rattus norvegicus [8]): 0.5 mg/kg

O=c1[nH]c2ccccc2n1C1CCN(CCCC(c2ccc(F)cc2)c2ccc(F)cc2)CC1 [PIMOZIDE]
ED50 (Mus musculus [1]): 1.1 mg/kg | ED50 (Mus musculus [2]): 7.4 mg/kg

O=C(CCCN1CCC(n2c(=S)[nH]c3ccccc32)CC1)c1ccc(F)cc1 [TIMIPERONE]
ED50 (Mus musculus [1]): 0.55 mg/kg | LD50 at 168 h [3]: 500 mg/kg | ED50 (Rattus norvegicus [4]): 0.33 mg/kg | Ratio ED50 (Rattus norvegicus [9]): 8.1 | Ratio ED50 (Rattus norvegicus [10]): 9.3 | Ratio ED50 (Rattus norvegicus [11]): 8.9 | Ratio ED50 (Rattus norvegicus [5]): 6.1 | ED50 (Rattus norvegicus [6]): 0.095 mg/kg | Ratio ED50 (Rattus norvegicus [12]): 6.5 | Ratio ED50 (Rattus norvegicus [7]): 4.5 | ED50 (Mus musculus [2]): 0.6 mg/kg | ED50 (Rattus norvegicus [8]): 0.054 mg/kg

— ChEMBL document CHEMBL3272239, “Psychotropic agents. 3. 4-(4-Substituted piperidinyl)-1-(4-fluorophenyl)-1-butanones with potent neuroleptic activity” (J Med Chem, 1978)
